System: Arabidopsis thaliana
Test: Arabidopsis thaliana root growth inhibition
Type: in vivo
Conditions: 168 h, root length ratio vs DMSO control, 50 μM compound, lower values indicate shorter root, larger effect, read-out: Arabidopsis (relative to DMSO)
Method: Finally, FIGS. 7a-7o are the photos of the Arabidopsis thaliana plants and the inhibition of their roots growth by the compounds of the present invention. These experiments were conducted as follows. Seeds were washed with 70% ethanol for one minute and then with sterile water. Sterilisation was performed with 50% bleaching solution (3%) and 0.2% Triton x-100 for ten minutes followed by a five-time wash with sterile water. The seeds were placed in six well-plates with half Murashige and Skoog medium (MS; Duchefa, Haarlem, Netherlands), containing 1% sucrose (w/v), pH 5.8. The plates with Arabidopsis thaliana seeds were placed at 4° C. for two days and then transferred for seven days to growth chamber (22±2° C.) at day/light cycles of 16/8 h. The plates were placed vertically. In each plate, a control including 0.1% DMSO in the medium was added. The compounds of the present invention were tested for their herbicidal efficiency by diluting 1000 times a 50 mM stock in DMSO leading to a final concentration of 50 μM with 0.1% DMSO.
In Tables 1, 2 and 4 above, Arabidopsis root length was measured after addition of 50-μM compound compared with the negative control (DMSO) treatment. Length values indicate the ratio between non-treated plates ([…]) and the length after the addition of 50 uM of each compound. Lower values indicate shorter root length, and consequently, larger effect.

Compound	activity at 50 µM [%]
CCc1ccc(C(=O)Nc2cccc(-c3nc(C)cc(=O)[nH]3)c2)cc1 [IML-24]	35
O=C(O)C1CN(C(=O)c2cc(-c3ccccc3)[nH]n2)c2ccccc21 (centres unmarked) [IML-125]	45
O=C(CNC(=O)c1ccc2[nH]ncc2c1)Nc1ccccc1 [IML-134]	67
O=C(O)CC1CN(C(=O)c2cc(-c3ccccc3)on2)c2ccccc21 (centres unmarked) [IML-164]	4
O=C(c1ccc2[nH]ncc2c1)N1CCCC(Nc2ccccc2)C1 (centres unmarked) [IML-203]	50
O=C(c1ccc2[nH]ncc2c1)N1CCC(Nc2ccccc2)C1 (centres unmarked) [IML-204]	35
O=C(Nc1cccc(-c2cn(Cc3ccccc3)nn2)c1)c1cccc(Cl)c1 [IML-232]	68

System: E. coli lacking the endogenic MetB CGS gene, transformed to express the CGS from Arabidopsis
Test: Growth of engineered E. coli expressing Arabidopsis CGS in M9 minimal media, with and without methionine
Type: cell-based
Conditions: score 0-5; growth of E. coli with Arabidopsis CGS gene in M9 minimal media
Method: In addition to the direct binding evaluation, specific assay to test the compounds activity and specificity were also developed. In this assay, E. coli cells, lacking the endogenic MetB CGS gene and transformed to express the CGS from Arabidopsis, were used. These cells were grown on M9 minimal media with and without external methionine supplemented to the cells, in the presence of the compounds of the embodiments. These selected compounds of the embodiments, capable of inhibiting the cell growth on M9, but incapable of affecting the cell growth when supplemented with methionine, were validated as methionine-pathway specific inhibitors.
In this assay, Methionine auxotroph E. coli mutant was transformed with PQE-30 vector containing the Arabidopsis CGS gene as previously described in Yael Hacham et al., Plant Physiol., February 2002, 128(2): 454-462. In order to test the effect of the small molecule inhibitors on the CGS and methionine pathway, growth curves of the E. coli in M9 minimal media with […] were measured with and without the addition of external methionine (40 mg/L) in the presence of variable compound concentrations. E. coli growth curves were measured by following the optical density at 600 nm of bacteria in 96 well-plate placed within Tecan M200 plate reader in orbital shaking mode at 37° C. The slope of each curve was estimated using the ‘linest’ function in Excel.

Compound	E. coli Assay LE395 (0-5)
COc1cccc(C(=O)Nc2cccc(-c3nc(C)cc(=O)[nH]3)c2)c1 [IML-11]	3
Cc1cc(=O)[nH]c(-c2cccc(NC(=O)c3ccc(O)cc3F)c2)n1 [IML-14]	3
Cc1cc(=O)[nH]c(-c2ccc(NC(=O)c3c(O)cccc3F)cc2)n1 [IML-15]	3
Cc1cc(=O)[nH]c(-c2cccc(NC(=O)c3ccccc3OC(F)F)c2)n1 [IML-22]	2
COc1ccnc(C(=O)Nc2cccc(-c3nc(C)cc(=O)[nH]3)c2)c1 [IML-62]	3
Cc1ccc(C(=O)Nc2cccc(-c3nc(C)cc(O)n3)c2)nc1 [IML-66]	3
COc1cccc(C(=O)Nc2cccc(-n3cc(C)nc3O)c2)c1 [IML-67]	3
COc1cccc(C(=O)Nc2cccc(-c3cc(C(F)(F)F)[nH]n3)c2)c1 [IML-70]	3
CC(=O)Nc1cccc(NC(=O)CNC(=O)c2ccc3nn[nH]c3c2)c1 [IML-110]	2
O=C(CNC(=O)c1ccc2[nH]ncc2c1)Nc1ccccc1 [IML-134]	3
Cc1c(Cl)cccc1Nc1nc(-c2cccc(NC(=O)c3ccccc3)c2)cs1 [IML-211]	4
COc1ccc(Cc2nc(-c3cccc(NC(=O)c4ccccc4F)c3)no2)cc1 [IML-217]	3
COc1cccc(Nc2nc(-c3cccc(N4C(=O)c5ccccc5C4=O)c3)cs2)c1 [IML-218]	3
O=C(Nc1cccc(-c2cn(Cc3ccccc3)nn2)c1)c1cc(C(F)(F)F)ccn1 [IML-223]	5

Same assay, conditions: score; growth with vs without external methionine (40 mg/L)

Compound	E. coli specificity (MOA)
COc1cccc(C(=O)Nc2cccc(-c3nc(C)cc(=O)[nH]3)c2)c1 [IML-11]	4
Cc1cc(=O)[nH]c(-c2cccc(NC(=O)c3ccc(O)cc3F)c2)n1 [IML-14]	4
Cc1cc(=O)[nH]c(-c2ccc(NC(=O)c3c(O)cccc3F)cc2)n1 [IML-15]	4
Cc1cc(=O)[nH]c(-c2cccc(NC(=O)c3ccccc3OC(F)F)c2)n1 [IML-22]	4
COc1ccnc(C(=O)Nc2cccc(-c3nc(C)cc(=O)[nH]3)c2)c1 [IML-62]	5
Cc1ccc(C(=O)Nc2cccc(-c3nc(C)cc(O)n3)c2)nc1 [IML-66]	4
COc1cccc(C(=O)Nc2cccc(-n3cc(C)nc3O)c2)c1 [IML-67]	4
COc1cccc(C(=O)Nc2cccc(-c3cc(C(F)(F)F)[nH]n3)c2)c1 [IML-70]	5
CC(=O)Nc1cccc(NC(=O)CNC(=O)c2ccc3nn[nH]c3c2)c1 [IML-110]	4
O=C(CNC(=O)c1ccc2[nH]ncc2c1)Nc1ccccc1 [IML-134]	4
COc1ccc(Cc2nc(-c3cccc(NC(=O)c4ccccc4F)c3)no2)cc1 [IML-217]	5
COc1cccc(Nc2nc(-c3cccc(N4C(=O)c5ccccc5C4=O)c3)cs2)c1 [IML-218]	5
O=C(Nc1cccc(-c2cn(Cc3ccccc3)nn2)c1)c1cc(C(F)(F)F)ccn1 [IML-223]	5

Biological target: T1, Tobacco CGS (Nicotiana tabacum, UniProt Q9ZPL5)
T1 sequence (Q9ZPL5 79-540): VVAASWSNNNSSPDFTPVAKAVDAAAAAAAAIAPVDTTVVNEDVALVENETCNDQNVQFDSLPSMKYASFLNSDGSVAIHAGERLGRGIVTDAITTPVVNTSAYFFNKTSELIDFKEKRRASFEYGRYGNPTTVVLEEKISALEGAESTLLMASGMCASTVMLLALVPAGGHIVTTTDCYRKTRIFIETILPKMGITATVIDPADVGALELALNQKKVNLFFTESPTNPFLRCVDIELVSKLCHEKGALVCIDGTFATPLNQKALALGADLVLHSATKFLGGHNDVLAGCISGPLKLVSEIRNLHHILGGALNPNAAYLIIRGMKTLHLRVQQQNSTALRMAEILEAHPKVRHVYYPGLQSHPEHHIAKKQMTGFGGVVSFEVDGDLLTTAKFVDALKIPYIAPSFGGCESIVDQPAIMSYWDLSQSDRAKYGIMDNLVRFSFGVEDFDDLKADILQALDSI
Test: Micro Scale Thermophoresis (MST) direct binding to CGS
Set-up: 6xHIS (N, cleaved yes); GB1 solubility tag (N, cleaved yes); made in house; host or cells: E. coli BL21
Conditions: score 0-5; binding to labelled Tobacco CGS
Method: The direct binding of the compounds of the embodiments to the CGS was tested by Micro Scale Thermophoresis (MST). In the MST assay, the CGS protein was labelled with a fluorophore, the samples were heated, and changes in fluorescence were measured as a function of the ligand concentration. In the MST assay, similar to the expression and purification described above, the recombinant Tobacco CGS protein was expressed in E. coli BL21 cells and purified to homogeneity. For that particular purpose, the pET-11 vector containing the DNA sequence of Tobacco CGS with an N-terminus […] tag followed by a TEV-cleavable GB1 solubility tag was cloned and transformed into the bacteria cells. Cells were cultured to OD=0.8, and protein expression was induced by the addition of 1 mM IPTG. The cells were cultured for additional 16 hours temperature 25° C. Following cellular lysis, the soluble fraction was passed through the nickel column and the bound HIS-tagged protein was eluted by 300 mM imidazole. Then, the tags […] and GB1 were cleaved in dialysis o/n and the mixtures passed again through the nickel column to separate the CGS from the TEV and HIS-GB1 constructs. As a final step the CGS was run on S75 size exclusion chromatography. Thus, the MST assay was performed to measure the biding of the compounds to the CGS protein. For this purpose, the CGS was labelled with commercially available amine reactive fluorophore (Cat # MO-[…], NanoTemper) according to the manufacture instructions. The MST binding curves were then measured using the Monolith NT.115 apparatus by incubating the labelled protein with the indicated compounds in a dose-response manner.

Compound	MST Tobacco (0-5)
COc1cccc(C(=O)Nc2cccc(-c3nc(C)cc(=O)[nH]3)c2)c1 [IML-11]	3
Cc1cc(=O)[nH]c(-c2cccc(NC(=O)c3ccc(O)cc3F)c2)n1 [IML-14]	3
Cc1cc(=O)[nH]c(-c2ccc(NC(=O)c3c(O)cccc3F)cc2)n1 [IML-15]	1
Cc1cc(=O)[nH]c(-c2cccc(NC(=O)c3ccccc3OC(F)F)c2)n1 [IML-22]	3
COc1ccnc(C(=O)Nc2cccc(-c3nc(C)cc(=O)[nH]3)c2)c1 [IML-62]	4
Cc1ccc(C(=O)Nc2cccc(-c3nc(C)cc(O)n3)c2)nc1 [IML-66]	3
CCc1ccccc1NC(=O)CNC(=O)c1ccc2nn[nH]c2c1 [IML-102]	5
CC(=O)Nc1cccc(NC(=O)CNC(=O)c2ccc3nn[nH]c3c2)c1 [IML-110]	5
CCc1ccccc1NC(=O)CNC(=O)c1ccc2c(c1)nnn2CC [IML-112]	4
CCc1ccccc1NC(=O)CN(C)C(=O)c1ccc2nc[nH]c2c1 [IML-113]	5
O=C(CNC(=O)c1ccc2[nH]ncc2c1)Nc1ccccc1 [IML-134]	3
COc1ccc(Cc2nc(-c3cccc(NC(=O)c4ccccc4F)c3)no2)cc1 [IML-217]	2

System: Roquette
Test: Roquette assay spray
Type: in vivo
Conditions: single spray

Compound	Roquette assay spray (single average)
O=C(O)CC1CN(C(=O)c2cc(-c3ccccc3)on2)c2ccccc21 (centres unmarked) [IML-164]	3.0
O=C(Nc1cccc(-c2cn(Cc3ccccc3)nn2)c1)c1cccc(Cl)c1 [IML-232]	1.0
CCc1nc(-c2cncc(NC(=O)c3cccc(Cl)c3)c2)no1 [IML-234]	1.5

Same assay, conditions: spray twice

Compound	Roquette assay spray (twice average)
CCc1ccc(C(=O)Nc2cccc(-c3nc(C)cc(=O)[nH]3)c2)cc1 [IML-24]	2.0
O=C(O)CC1CN(C(=O)c2cc(-c3ccccc3)on2)c2ccccc21 (centres unmarked) [IML-164]	3.0
O=C(Nc1cccc(-c2cn(Cc3ccccc3)nn2)c1)c1cccc(Cl)c1 [IML-232]	4.0
CCc1nc(-c2cncc(NC(=O)c3cccc(Cl)c3)c2)no1 [IML-234]	3.0

System: not listed separately
Test: TEV (relative to DMSO)
Conditions: not given

Compound	TEV (relative to DMSO)
O=C(c1cc(-c2ccccc2)on1)N1CCc2cc([N+](=O)[O-])ccc21 [IML-161]	0.14
O=C(O)CC1CN(C(=O)c2cc(-c3ccccc3)on2)c2ccccc21 (centres unmarked) [IML-164]	0.11
CCc1nc(-c2cncc(NC(=O)c3cccc(Cl)c3)c2)no1 [IML-234]	0.75
